According to US9233979B2, “Compounds that are ERK inhibitors” (Merck Sharp & Dohme Corp., priority 2012, dated 2016):

target: phosphorylated active hERK2 enzyme (Homo sapiens (Human), UniProt P28482); experiment: Active Human ERK2 (hERK2) Activity Assay (IMAP-FP); type: biochemical; conditions: Table 5, 0.5 nM hERK2, 30 μM ATP, 10 point titration, read-out: AERK2 IC50
Summary of the method: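 IMAP fluorescence-polarization kinase assay: 0.5 nM activated hERK2 with 900 nM unlabeled plus 80 nM labeled peptide and 30 μM ATP, reacted 60 min. Quenched with IMAP beads in binding buffer with 24 mM NaCl; FP read after 60 min equilibration.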

Sequence of phosphorylated active hERK2 enzyme (P28482 whole entry): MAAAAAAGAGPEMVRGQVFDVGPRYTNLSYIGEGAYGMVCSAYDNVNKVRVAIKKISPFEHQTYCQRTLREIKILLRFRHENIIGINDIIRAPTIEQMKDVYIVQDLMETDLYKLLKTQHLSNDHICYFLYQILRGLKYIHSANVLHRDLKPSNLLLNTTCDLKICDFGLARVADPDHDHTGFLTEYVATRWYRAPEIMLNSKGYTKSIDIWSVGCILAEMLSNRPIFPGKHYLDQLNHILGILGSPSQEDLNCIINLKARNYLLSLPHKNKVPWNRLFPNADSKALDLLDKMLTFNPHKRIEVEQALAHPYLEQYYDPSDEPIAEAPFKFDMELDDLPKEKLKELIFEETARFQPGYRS

IC50 [nM]	SMILES
38.8	CCNc1n[nH]c2c(C)c(NC(=O)N[C@H](C)c3ccccc3)ncc12 [Example 60, (R)-1-(3-(Ethylamino)-7-methyl-1H-pyrazolo[4,3-c]pyridin-6-yl)-3-(1-phenylethyl)urea]
20.2	CN1C[C@H](NC(=O)Nc2cc3[nH]nc(N4CCOCC4)c3cn2)[C@@H](c2ccccc2)C1 [Example 41, 1-[(3R,4S)-1-Methyl-4-phenylpyrrolidin-3-yl]-3-(3-morpholin-4-yl-1H-pyrazolo[4,3-c]pyridin-6-yl)urea]
0.4	C[C@@H](NC(=O)Nc1cc2[nH]nc(N3CCOCC3)c2cn1)c1ccc(F)cc1 [Example 31, 1-[(1R)-1-(4-fluorophenyl)ethyl]-3-(3-morpholin-4-yl-1H-pyrazolo[4,3-c]pyridin-6-yl)urea]
88.8	C[C@@H](NC(=O)Nc1cc2[nH]nc(NS(=O)(=O)CC3CC3)c2cn1)c1ccccc1 [Example 55, 1-cyclopropyl-N-[6-({[(1R)-1-phenylethyl]carbamoyl}amino)-1H-pyrazolo[4,3-c]pyridin-3-yl]methanesulfonamide]
13.6	COCCNC(=O)Nc1cc2[nH]nc(N3CCOCC3)c2cn1 [Example 20, 1-(2-methoxyethyl)-3-(3-morpholin-4-yl-1H-pyrazolo[4,3-c]pyridin-6-yl)urea]
191	C[C@@H](NC(=O)Nc1cc2[nH]nc(NS(=O)(=O)C3CNC3)c2cn1)c1ccccc1 [Example 56]

same assay, conditions: Table 6, 0.5 nM hERK2, 30 μM ATP, 10 point titration, read-out: AERK2 IC50

IC50 [nM]	SMILES
0.9	COC(=O)Nc1n[nH]c2cc(NC(=O)N[C@@H](c3ccccc3)C3(O)CCCC3)ncc12 [Example 289, methyl [6-({[(S)-(1-hydroxycyclo-pentyl)(phenyl)-methyl]carbamoyl}amino)-1H-pyrazolo[4,3-c]-pyridin-3-yl]-carbamate]
0.7	C[C@@H](NC(=O)Nc1cc2[nH]nc(NCc3cccnc3)c2cn1)c1ccccc1 [Example 316, (R)-1-(1-phenylethyl)-3-(3-((pyridin-3-ylmethyl)amino)-1H-pyrazolo[4,3-c]pyridin-6-yl)urea]
5.3	Nc1n[nH]c2cc(NC(=O)NCc3ccccc3OC(F)F)ncc12 [Example 267, 1-(3-amino-1H-pyrazolo[4,3-c]pyridin-6-yl)-3-[2-(difluoro-methoxy)benzyl]-urea]
2.9	COC(=O)Nc1n[nH]c2cc(NC(=O)N[C@H](C)c3ccc(F)c(Cl)c3)ncc12 [Example 300, methyl [6-({[(1R)-1-(3-chloro-4-fluorophenyl)ethyl]carbamoyl}amino)-1H-pyrazolo[4,3-c]pyridin-3-yl]-carbamate]
3.2	C[C@@H](NC(=O)Nc1cc2[nH]nc(N)c2cn1)c1cccc(F)c1 [Example 270, 1-(3-amino-1H-pyrazolo[4,3-c]pyridin-6-yl)-3-[(1R)-1-(3-fluorophenyl)ethyl]urea]
0.6	CCNc1n[nH]c2cc(NC(=O)N[C@H](COC(F)F)c3ccccc3)ncc12 [Example 353, 1-[(1S)-2-(difluoromethoxy)-1-phenylethyl]-3-[3-(ethylamino)-1H-pyrazolo[4,3-c]pyridin-6-yl]urea]
7.4	CC1CC(Nc2n[nH]c3cc(NC(=O)N[C@H](C)c4ccccc4)ncc23)C(C)O1 (stereo partly drawn) [Example 78, 1-(3-((2,5-dimethyltetrahydro-furan-3-yl)amino)-1H-pyrazolo[4,3-c]-pyridin-6-yl)-3-((R)-1-phenylethyl)urea]
7.3	COC(=O)Nc1n[nH]c2cc(NC(=O)N[C@H](C)c3ccccc3F)ncc12 [Example 305, methyl [6-({[(1R)-1-(2-fluorophenyl)-ethyl]carbamoyl}-amino)-1H-pyrazolo[4,3-c]-pyridin-3-yl]-carbamate]
2.9	C[C@@H](NC(=O)Nc1cc2[nH]nc(NC(=O)c3ccncc3)c2cn1)c1ccccc1 [Example 214, N-[6-({[(1R)-1-phenylethyl]-carbamoyl}amino)-1H-pyrazolo[4,3-c]pyridin-3-yl]-pyridine-4-carboxamide]
1.7	C[C@@H](NC(=O)Nc1cc2[nH]nc(NCC3CCOCC3)c2cn1)c1ccccc1 [Example 166, 1-[(1R)-1-phenylethyl]-3-{3-[(tetrahydro-2H-pyran-4-yl-methyl)amino]-1H-pyrazolo[4,3-c]pyridin-6-yl}urea]
19.1	COC(=O)Nc1n[nH]c2cc(NC(=O)N[C@H](C)c3ccc(Cl)nc3)ncc12 [Example 311, methyl [6-({[(1R)-1-(6-chloropyridin-3-yl)ethyl]-carbamoyl}amino)-1H-pyrazolo[4,3-c]pyridin-3-yl]-carbamate]
2	COC(=O)Nc1n[nH]c2cc(NC(=O)NCc3ccccc3OC)ncc12 [Example 297, methyl (6-{[(2-methoxybenzyl)-carbamoyl]amino}-1H-pyrazolo[4,3-c]pyridin-3-yl)-carbamate]
17.3	C[C@@H](NC(=O)Nc1cc2[nH]nc(N)c2cn1)c1ccc(F)c(Cl)c1 [Example 271, 1-(3-amino-1H-pyrazolo[4,3-c]pyridin-6-yl)-3-[(1R)-1-(3-chloro-4-fluorophenyl)-ethyl]urea]
382	CCNc1n[nH]c2c(C(F)(F)F)c(NC(=O)N[C@H](C)c3ccccc3)ncc12 [Example 135, (R)-1-(3-(ethylamino)-7-(trifluoromethyl)-1H-pyrazolo[4,3-c]pyridin-6-yl)-3-(1-phenylethyl)urea]
28	CCNc1n[nH]c2cc(NC(=O)NC3COc4ccccc4C3)ncc12 (stereo not shown) [Example 233, 1-(3,4-dihydro-2H-chromen-3-yl)-3-[3-(ethylamino)-1H-pyrazolo[4,3-c]pyridin-6-yl]urea]
1.1	C[C@@H](NC(=O)Nc1cc2[nH]nc(NC(=O)CC(F)(F)F)c2cn1)c1ccccc1 [Example 199, 3,3,3-trifluoro-N-[6-({[(1R)-1-phenylethyl]-carbamoyl}amino)-1H-pyrazolo[4,3-c]-pyridin-3-yl]-propanamide]

IC50 [nM]	SMILES
0.5	C[C@@H](NC(=O)Nc1cc2[nH]nc(NC(=O)C3CCC3)c2cn1)c1ccccc1 [Example 201, N-[6-({[(1R)-1-phenylethyl]-carbamoyl}amino)-1H-pyrazolo[4,3-c]pyridin-3-yl]-cyclobutane-carboxamide]
52.2	Nc1n[nH]c2c(Cl)c(NC(=O)N[C@H](COC(F)F)c3ccccc3)ncc12 [Example 363, 1-(3-amino-7-chloro-1H-pyrazolo[4,3-c]pyridin-6-yl)-3-[(1S)-2-(difluoromethoxy)-1-phenylethyl]urea]
4.2	C[C@@H](NC(=O)Nc1cc2[nH]nc(NCC3CCCOC3)c2cn1)c1ccccc1 (stereo partly drawn) [Example 167, 1-[(1R)-1-phenylethyl]-3-{3-[(tetrahydro-2H-pyran-3-yl-methyl)amino]-1H-pyrazolo[4,3-c]pyridin-6-yl}urea]
0.8	[2H]C([2H])([2H])C(=O)Nc1n[nH]c2cc(NC(=O)N[C@H](C)c3ccccc3)ncc12 [Example 115, (R)-N-(6-(3-(1-phenylethyl)ureido)-1H-pyrazolo[4,3-c]pyridin-3-yl)(acetamide-D3)]
12.2	C[C@@H](NC(=O)Nc1cc2[nH]nc3c2c(n1)CCN3)c1ccccc1 [Example 136, (R)-1-(1-phenylethyl)-3-(1,3,4,5-tetrahydropyrazolo[3,4,5-de][1,6]naphthyridin-7-yl)urea]
3.4	COC(=O)Nc1n[nH]c2cc(NC(=O)N[C@H](C)c3ccc(Cl)c(C)c3)ncc12 [Example 304, methyl [6-({[(1R)-1-(4-chloro-3-methyl-phenyl)ethyl}-carbamoyl}amino)-1H-pyrazolo[4,3-c]pyridin-3-yl]-carbamate]
0.6	CC(C)(O)[C@@H](NC(=O)Nc1cc2[nH]nc(N3CC(F)(F)C3)c2cn1)c1ccccc1 [Example 367, 1-[3-(3,3-difluoro-azetidin-1-yl)-1H-pyrazolo[4,3-c]-pyridin-6-yl]-3-[(1S)-2-hydroxy-2-methyl-1-phenylpropyl]urea]
11.8	CNc1n[nH]c2cc(NC(=O)N[C@H](C)c3ccccc3)nc(C)c12 [Example 336, 1-[4-methyl-3-(methylamino)-1H-pyrazolo[4,3-c]pyridin-6-yl]-3-[(1R)-1-phenylethyl]urea]
4.4	CCNc1n[nH]c2cc(NC(=O)N[C@H](C)c3ccccc3)nc(COC)c12 [Example 71, (R)-1-(3-(ethylamino)-4-(methoxymethyl)-1H-pyrazolo[4,3-c]pyridin-6-yl)-3-(1-phenylethyl)urea]
0.4	O=C(Nc1cc2[nH]nc(N3CCOCC3)c2cn1)N[C@H](COC(F)F)c1ccccc1 [Example 440, 1-[(1S)-2-(difluoromethoxy)-1-phenylethyl]-3-(3-morpholin-4-yl-1H-pyrazolo[4,3-c]pyridin-6-yl)urea]
483	CO[C@@H]1CCC[C@H]1NC(=O)Nc1cc2[nH]nc(N)c2cn1 [Example 416, 1-(3-amino-1H-pyrazolo[4,3-c]pyridin-6-yl)-3-[(1R,2R)-2-methoxy-cyclopentyl]urea]
28.4	C[C@@H](NC(=O)Nc1cc2[nH]nc(NCCN3CCOCC3)c2cn1)c1ccccc1 [Example 194, 1-{3-[(2-morpholin-4-ylethyl)amino]-1H-pyrazolo[4,3-c]-pyridin-6-yl}-3-[(1R)-1-phenylethyl]urea]
0.3	Cc1nc(NC(=O)N[C@@H](c2ccccc2)C(C)(C)O)cc2[nH]nc(N3CCOCC3)c12 [Example 107, 1-[(1S)-2-hydroxy-2-methyl-1-phenylpropyl]-3-(4-methyl-3-morpholin-4-yl-1H-pyrazolo[4,3-c]-pyridin-6-yl)urea]
0.8	COC[C@@H](NC(=O)Nc1cc2[nH]nc(NC(C)C(F)(F)F)c2cn1)c1ccccc1 (stereo partly drawn) [Example 422, 1-[(1S)-2-methoxy-1-phenylethyl]-3-{3-[(2,2,2-trifluoro-1-methylethyl)-amino]-1H-pyrazolo[4,3-c]-pyridin-6-yl}urea]
127	C[C@@H](NC(=O)Nc1cc2[nH]nc(Nc3ccccc3)c2cn1)c1ccccc1 [Example 379, 1-[3-(phenyl-amino)-1H-pyrazolo[4,3-c]-pyridin-6-yl]-3-[(1R)-1-phenylethyl]urea]
